Test results from patent US11767302B2, “Reagents and methods for tetrazine synthesis” (University of Delaware, priority 2020, dated 2023).
Values joined by “and” are separate entries in the source; they are usually repeats but may differ in a detail not shown here. Equal values may be shown once.

Key:
Experimental log P = assay type: physicochemical
[1] = Stopped-flow kinetic analysis of tetrazines with eq-5-hydroxy-trans-cyclooctene in PBS buffer at 25° C.; conditions: for k2, second order rate constant / kobs: PBS pH 7.4, 25° C.; for k2, second order rate constant: linear regression of kobs; for kobs: 0.025 mM tetrazine; for krel: relative to 5b, PBS, 25° C.
Description: Solutions (5 mL) of tetrazines 5b, 6c, 5l, 6a and 4f (0.050 mM) were prepared in PBS buffer (pH 7.4). Solutions (10 mL) of eq-5-hydroxy-trans-cyclooctene (0.50, 0.60, 0.70, 0.80 mM) were prepared in PBS buffer (pH 7.4). The reactions between tetrazines and trans-cyclooctene were measured under pseudo-first order conditions using SX 18MV-R stopped-flow spectrophotometer (Applied Photophysics Ltd.). Each solution of tetrazine and trans-cyclooctene were injected in equal volumes via 3 mL syringes into the stopped-flow instrument at 25° C., resulting in final concentration of 0.025 mM of tetrazines and 0.25, 0.30, 0.35, 0.40 mM trans-cyclooctene. The reaction was monitored by the decay of absorbance associated with the tetrazines (5b at 263 nm, 6c at 268 nm, 5l at 274 nm, 6a at 296 nm, 4f at 266 nm). Reaction were repeated in triplicate. With Prism software, an observed rate constant, kobs, was obtained by nonlinear regression. Second order rate constants, k2, were calculated by linear regression between kobs and final concentration of trans-cyclooctene.

[2] = Tetrazine stability in PBS buffer in ambient light at 25° C.; assay type: physicochemical; conditions: PBS buffer pH 7.4, ambient light, day 0-5
Description: Solutions (3 mL) of tetrazine 5b, 5l and 6c (400 μM) were prepared in PBS buffer (pH 7.4) in vials and stored in ambient light at 25° C. Tetrazine concentrations were determined by recording the absorbance at 518 nm (6c) and 520 nm (5b and 5l) in cuvettes in day 0, 1, 3 and 5. A solution of 6a (50 μM) was prepared in PBS buffer (pH 7.4) in vials and stored in ambient light at room temperature. Tetrazine concentration was determined by recording the absorbance at 520 nm in cuvettes at day 0, 1, 3 and 5.

[3] = Stopped-flow kinetic analysis of MAGL tetrazines with eq-5-hydroxy-trans-cyclooctene in MeOH at 25° C.; conditions: for kobs: 0.04 mM tetrazine, 0.40 mM trans-cyclooctene, MeOH; for kobs / krel: 25° C.; for krel: relative to 12, MeOH
Description: Solutions (3 mL) of tetrazines 100a, 100b, 100c and 12 (0.080 mM) was prepared in MeOH. Solutions (3 mL) of eq-5-hydroxy-trans-cyclooctene (0.80 mM) were prepared in MeOH. The reactions between tetrazines and trans-cyclooctene were measured under pseudo-first order conditions using SX 18MV-R stopped-flow spectrophotometer (Applied Photophysics Ltd.). Each solution of tetrazine and trans-cyclooctene were injected in equal volumes via 3 mL syringes into the stopped-flow instrument at 25° C., resulting in final concentration of 0.04 mM of tetrazines and 0.40 mM trans-cyclooctene. The reaction was monitored by the decay of absorbance associated with the tetrazines (10a and 10b at 300 nm, 10c at 280 nm). Reaction were repeated in triplicate. With Prism software, an observed rate constant, kobs, was obtained by nonlinear regression.

human MAGL enzyme = target: T1, human MAGL enzyme (Homo sapiens, UniProt Q99685); test: MAGL in vitro activity assay (7-HCA substrate, fluorescence); assay type: biochemical; conditions: human MAGL pre-treated 30 min at room temperature, 7-HCA substrate 1 h; read-out: IC50, inhibition of MAGL activity in vitro
T1 sequence (Q99685 1-303): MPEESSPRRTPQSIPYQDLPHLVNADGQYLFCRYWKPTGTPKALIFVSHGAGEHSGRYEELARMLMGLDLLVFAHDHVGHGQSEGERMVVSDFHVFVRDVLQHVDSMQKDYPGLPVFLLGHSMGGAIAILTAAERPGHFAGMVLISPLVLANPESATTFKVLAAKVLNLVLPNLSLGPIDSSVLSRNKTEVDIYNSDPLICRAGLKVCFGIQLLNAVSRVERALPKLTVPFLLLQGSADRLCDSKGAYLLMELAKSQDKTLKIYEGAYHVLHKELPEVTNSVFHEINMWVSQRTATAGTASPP
Description: MAGL in vitro activity assay. The MAGL in vitro activity assay was performed based on a reported protocol. Briefly, human MAGL enzyme was pre-treated with compounds at room temperature for 30 min, and subsequently incubated with 7-hydroxycoumarinyl arachidonate (7-HCA) as a substrate at room temperature for 1 h. The fluorescence signals were measured on an Envision plate reader (excitation 355 nm, emission 460 nm).

[4] = Stopped-flow kinetics of 9 versus 10 with axial 5-hydroxy-trans-cyclooctene in methanol; conditions: 25° C.; for kobs, average rate constant: 0.05 mM tetrazine, 0.5 mM trans-cyclooctene
Description: 0.1 mM solutions (10 mL) in methanol were prepared from stock solutions of 9 (16.3 mg in 632 μL DMF, 50 mM) and 10 (10.0 mg in 422 μL MeOH, 100 mM). A 1.0 mM solution (25 mL) in methanol of axial 5-hydroxy-trans-cyclooctene 11 was also prepared from a stock solution (29.0 mg in 460 μL MeOH, 500 mM). The reaction between tetrazine and a trans-cyclooctene was measured under pseudo-first order conditions using a SX 18MV-R stopped-flow spectrophotometer (Applied Photophysics Ltd.). The 0.1 mM solution of tetrazines 9 or 10 and the 1.0 mM solution of trans-cyclooctene 11 were injected as equal volumes via syringe into the stopped-flow instrument which was held at 25° C., resulting in a final concentration of the tetrazine of 0.05 mM and a final concentration of the trans-cyclooctene of 0.5 mM. The reaction was monitored by the absorbance decay of tetrazine measured at 290 nm. Data points were collected every 0.1 second for 400 seconds and reaction was repeated in triplicate. Prism software was used to obtain the observed rate of each reaction, kobs, which was determined by nonlinear regression analysis resulting in average rate constants of 0.01033 s^−1 for 9 and 0.00975 s^−1 for 10. The relative rate, krel, of 9 versus 10 was thus determined to be 1.06.

endogenous MAGL = target: T2, endogenous MAGL (Homo sapiens, UniProt Q99685); test: Labeling of endogenous MAGL in live cells, gel-based ABPP with TCO-TAMRA; assay type: cell-based
T2 sequence (Q99685 1-303): T1 sequence (Q99685 1-303)
Description: Cell culture and probe treatment. Human brain vascular pericytes were cultured in Dulbecco's Modified Eagle Medium/Nutrient Mixture F-12 (DMEM/F-12) GlutaMAX media supplemented with 5% heat-inactivated fetal bovine serum (HI FBS), 1× pericyte growth supplement (PGS), and 1× penicillin-streptomycin at 37° C. with 5% CO2 in a humidified environment. Probe treatment was performed in duplicates. Cells were plated in 6-well plates and cultured overnight in growth media. Live cells were then treated with 300 nM KML29 as a competitor compound (or DMSO as a control) at 37° C. for 1 h. Cells were subsequently treated with probe 9 (0.3 nM-3.2 μM) at 37° C. for 1 h (cells pre-treated with KML29 were treated with 32 nM of probe 9), after which the cells were washed with fresh growth media. The media were then placed with fresh media containing 2 μM of TCO-TAMRA, and the cells were incubated at 37° C. for 30 min. To quench the reaction, the media were replaced with PBS containing 100 μM tetrazine amine, and the cells were washed with cold PBS and harvested with a scrapper. The suspensions were centrifuged at 10,000×g for 1 min at 37° C., and the cell pellets were lysed in PBS containing 0.25% sodium dodecyl sulfate (SDS) with sonication. The protein concentration was measured with a bicinchoninic acid (BCA) assay kit (Thermo Scientific) and normalized. In-gel fluorescence and data analysis. The proteomes were analyzed with 1.0 mm thick 4-12% bis-tris 15-well protein gels in 2-(N-morpholino)ethanesulfonic acid (MES) buffer. The gels were scanned with a Typhoon FLA 9500 Biomolecular Imager (GE Healthcare) with the TAMRA channel with 532 nm excitation and a 575 nm long pass emission filter. To measure the total protein loading, the gels were treated with ClearPage Instant Blue (CBS Scientific) overnight, and after brief destaining with water, scanned with an Odyssey Imager (Li-COR) at the 700 nm channel. The in-gel fluorescence images were processed with ImageJ software (v1.47, NIH), and the intensities were quantified with Image Studio (v5.2, Li-COR) with background subtraction. The coomassie images were processed and quantified with the Image Studio software with background subtraction. For analysis of the cellular potency, the in-gel fluorescence intensities of the two MAGL bands were averaged, normalized with the total coomassie intensity of the corresponding sample, and fitted with a dose-response equation with Prism v7.02 (GraphPad). […] The media were then placed with fresh media containing 2 μM of TCO-TAMRA, and the cells were incubated at 37° C. for 30 min. […] The protein concentration was measured with a bicinchoninic acid (BCA) assay kit (Thermo Scientific) and normalized. In-gel fluorescence and data analysis. […]

Compound: COC(=O)CCc1nnc(-c2ccoc2)nn1 [5l, methyl 3-(6-(furan-3-yl)-1,2,4,5-tetrazin-3-yl)propanoate]
- logP (Experimental log P): 1.2
- times less reactive than 5b ([1]; reaction with 5-hydroxyTCO): 2.9 times
- decomposition per day [2]: 1.7%

Compound: COC(=O)CCc1nnc(-c2cccc(C#N)c2)nn1 [5i, methyl 3-(6-(3-cyanophenyl)-1,2,4,5-tetrazin-3-yl)propanoate]
- k2, second order rate constant [1]: 69.88 ± 4.824 M⁻¹ s⁻¹
- kobs ([1]; TCO 0.25 mM): 0.21 s⁻¹
- kobs ([1]; TCO 0.30 mM): 0.24 s⁻¹
- kobs ([1]; TCO 0.35 mM): 0.029 s⁻¹
- kobs ([1]; TCO 0.40 mM): 0.032 s⁻¹
- krel [1]: 0.35

Compound: C=C(OCC)c1nnc(-c2ccc(S(=O)(=O)NCC3CCN(C(=O)OC(C(F)(F)F)C(F)(F)F)CC3)cc2)nn1 [100b, 1,1,1,3,3,3-hexafluoropropan-2-yl 4-((4-(6-(1-ethoxyvinyl)-1,2,4,5-tetrazin-3-yl)phenylsulfonamido)methyl)piperidine-1-carboxylate]
- kobs [3]: 0.031 s⁻¹
- krel [3]: 25
- fold more reactive than 100a ([3]; stopped flow kinetics with 5-hydroxyTCO): 8.6 fold
- IC50 (human MAGL enzyme): 46 nM

Compound: Cc1nnc(-c2ccc(CN)cc2)nn1 [compound 10, 3-methyl-6-(4-aminomethyl)tetrazine, reference compound]
- kobs, average rate constant [4]: 0.00975 s⁻¹

Compound: O=C(OC(C(F)(F)F)C(F)(F)F)N1CCC(C(O)(c2ccc3c(c2)OCO3)c2ccc3c(c2)OCO3)CC1 [KML29, reference compound]
- competition of probe 9 labeling of MAGL (endogenous MAGL; probe 9 32 nM 1 h after pre-treatment with KML29 300 nM 1 h): competed

Compound: Cc1nnc(-c2ccc(-n3ccc(C4CCN(C(=O)OC(C(F)(F)F)C(F)(F)F)CC4)n3)cc2)nn1 [compound 9, 1,1,1,3,3,3-hexafluoropropan-2-yl 4-(1-(4-(6-methyl-1,2,4,5-tetrazin-3-yl)phenyl)-1H-pyrazol-3-yl)piperidine-1-carboxylate]
- off-target labeling in live cells (endogenous MAGL; human brain vascular pericytes, in-gel fluorescence, consistent with ABHD6): labeled an additional protein at ˜35 kDa
- IC50 (endogenous MAGL; human brain vascular pericytes, probe 1 h, then 2 μM TCO-TAMRA 30 min, in-gel fluorescence, read-out: cellular IC50 of MAGL labeling): 8 nM
- IC50 (human MAGL enzyme): 31 nM
- kobs, average rate constant [4]: 0.01033 s⁻¹
- krel of 9 versus 10 [4]: 1.1 and 1.06

Compound: C=C(OCC)c1nnc(-c2ccccc2)nn1 [6a, 3-(1-ethoxyvinyl)-6-phenyl-1,2,4,5-tetrazine]
- k2, second order rate constant [1]: 2007 ± 101.3 M⁻¹ s⁻¹
- kobs ([1]; TCO 0.25 mM): 0.52 s⁻¹
- kobs ([1]; TCO 0.30 mM): 0.62 s⁻¹
- kobs ([1]; TCO 0.35 mM): 0.70 s⁻¹
- kobs ([1]; TCO 0.40 mM): 0.83 s⁻¹
- krel [1]: 10
- decomposition per day [2]: 0.8%

Compound: COC(=O)CCc1nncnn1 [4f, methyl 3-(1,2,4,5-tetrazin-3-yl)propanoate]
- k2, second order rate constant [1]: 1591 ± 25.74 M⁻¹ s⁻¹
- kobs ([1]; TCO 0.25 mM): 0.53 s⁻¹
- kobs ([1]; TCO 0.30 mM): 0.61 s⁻¹
- kobs ([1]; TCO 0.35 mM): 0.68 s⁻¹
- kobs ([1]; TCO 0.40 mM): 0.77 s⁻¹
- krel [1]: 8.0

Compound: O=C(OC(C(F)(F)F)C(F)(F)F)N1CCC(CNS(=O)(=O)c2ccc(-c3nnc(-c4ccoc4)nn3)cc2)CC1 [100a, 1,1,1,3,3,3-hexafluoropropan-2-yl 4-((4-(6-(furan-3-yl)-1,2,4,5-tetrazin-3-yl)phenylsulfonamido)methyl)piperidine-1-carboxylate]
- kobs [3]: 0.003623 s⁻¹
- krel [3]: 3
- IC50 (human MAGL enzyme): 12 nM
